# Patent publication US9598393B2, “Structural variants of mycolactones for use in modulating inflammation, immunity and pain” (priority 2011, dated 2017)
# Read-outs that look alike come from different tables or passages of the source.
# How the values were obtained:
# [1] = system: epithelial HeLa cell line; assay: Cytopathic activity, MTT assay (effect on global cell metabolic activity); type: cell-based, human; details: for Metabolic activity (MA: mean absorbance) (A) % relative to control / IC50: HeLa cells, 48 h, MTT; for IC50: % inhibition relative to control, read-out: Metabolic activity (A): IC50 value (concentration at which the compound induces 50% of mycolactone maximal activity); for Metabolic activity (A): corresponding % of mycolactone activity (in brackets): relative to mycolactone (100%); for cytopathic activity, reduction compared to mycolactones A/B: human
# Procedure: (A) The cytopathic activity of mycolactone and variants was assessed in a [3-(4,5-Dimethylthiazol-2-yl)-2,5-Diphenyltetrazolium Bromide] (MTT) assay, using the epithelial HeLa cell line (ATCC®; CCL-2) as a model. Briefly, HeLa cells were plated in 96-well plates (10^4 cells/well) in Dulbecco's Modified Eagle culture medium supplemented with 10% fetal calf serum and 2 mM L-Glutamine. After 16 h, mycolactone or variants dilutions (final concentration 0.4-8 μM) were added to the wells, and incubated with the cells for 48 h, prior to the addition of MTT at 50 μg/ml. After 4 h, culture supernatants were removed and the formed formazan crystals dissolved in dimethyl sulfoxide (DMSO) for absorbance measurement.
# [2] = system: IL-2 production by Jurkat T cells; assay: Immunosuppressive activity: activation-induced IL-2 production, ELISA; type: cell-based, human; details: for Cytokine production (M.A.: mean absorbance) (C) % relative to control / IC50: Jurkat T cells; for Cytokine production (M.A.: mean absorbance) (C) % relative to control: PMA + calcium ionophore, IL-2 ELISA; for IC50: IL-2, % inhibition relative to control, read-out: Cytokine production (C): IC50 value (concentration at which the compound induces 50% of mycolactone maximal activity); for Cytokine production (C): corresponding % of mycolactone activity (in brackets): relative to mycolactone (100%)
# Procedure: (C) The immunosuppressive activity of mycolactone and variants was measured on Jurkat T cells (ATCC®; TIB-152™ clone E6-1), as models of human T lymphocytes. Cells were inoculated in 96-well plates (5×10^5 cells/well in RPMI 1640 medium supplemented with 10% fetal calf serum and 2 mM L-Glutamine) then incubated with serial dilutions of the various compounds for 4 h, and stimulated for 20 h with 50 ng/ml phorbol-12-myristate-13-acetate (PMA) and 1 μg/ml calcium ionophore. The production of IL-2 was then assessed in culture supernatants by ELISA.
# [3] = system: CD62-L receptor expression by human peripheral blood cells (PBLs); assay: T cell homing: expression of CD62-L receptor, flow cytometry; type: cell-based; details: for CD62-L expression (MFI: mean fluorescence intensity) (D) % relative to control / IC50: human PBLs, 72 h; for IC50: % inhibition relative to control, read-out: CD62-L expression (D): IC50 value (concentration at which the compound induces 50% of mycolactone maximal activity); for CD62-L expression (D): corresponding % of mycolactone activity (in brackets): relative to mycolactone (100%)
# Procedure: (D) The effect of mycolactone and variants on T cell homing was assessed through their inhibitory effect on the expression of CD62-L receptor by human peripheral blood cells (PBLs). Human PBLs were isolated from total blood by Ficoll density gradient centrifugation. They were incubated in 96-well plates (10^5 cells/well in RPMI 1640 medium supplemented with 10% fetal calf serum and 2 mM L-Glutamine) with mycolactone or variant for 72 h. Cells were then fixed for 20 min in 4% paraformaldehyde (PFA) and stained with an anti-CD62-L antibody coupled with phycoerythrin in a solution of PBS, BSA 0.5%, saponin 0.05%, then analysed by flow cytometry.
# [4] = system: HeLa cell; assay: Cytotoxicity by Trypan Blue dye exclusion (cell viability); type: cell-based, human; details: for cytotoxicity compared to mycolactones A/B: at 16 μM
# Procedure: (B) HeLa cell death being negligible in the concentration and time frame conditions used in (A), the cytotoxicity of 16 μM mycolactone and variants was evaluated after 48 h of incubation by cell exclusion of the Trypan Blue dye. Here, one part of Trypan blue (0.4% in phosphate-buffered saline PBS) was mixed with one part cell suspension (recovered from cell culture wells by trypsin treatment). The mixture was incubated for 3 min at room temperature and unstained (viable) and stained (nonviable) cells counted separately with a hemacytometer.
compound,measurement,setting,value
"2,2-difluoro-4,6,10,12-tetramethyl-8-(4-{1-[(2S)-2-[(2R,4E,7S,8S)-7-methyl-12-oxo-8-{[(2E,4E,6E,8E,10E,12S,13S,15S)-12,13,15-trihydroxy-4,6,10-trimethylhexadeca-2,4,6,8,10-pentaenoyl]oxy}-1-oxacyclododec-4-en-2-yl]propyl]-1H-1,2,3-triazol-4-yl}butyl)-1λ^5,3-diaza-2λ^4-boratricyclo[7.3.0.0^3,7]dodeca-1(12),4,6,8,10-pentaen-1-ylium [Compound 28]",Metabolic activity (MA: mean absorbance) (A) % relative to control,[1]; 0.4 μM,0%
same,Metabolic activity (MA: mean absorbance) (A) % relative to control,[1]; 4 μM,20%
same,Metabolic activity (MA: mean absorbance) (A) % relative to control,[1]; 8 μM,35%
same,IC50,[1],> 16 µM
same,Metabolic activity (A): corresponding % of mycolactone activity (in brackets),[1],< 20%
same,Cytokine production (M.A.: mean absorbance) (C) % relative to control,[2]; 0.4 μM,20%
same,Cytokine production (M.A.: mean absorbance) (C) % relative to control,[2]; 4 μM,50%
same,Cytokine production (M.A.: mean absorbance) (C) % relative to control,[2]; 8 μM,70%
same,IC50,[2],4 µM
same,Cytokine production (C): corresponding % of mycolactone activity (in brackets),[2],2.5%
"2,2-difluoro-8-(4-{1-[(2S)-2-[(2R,4E,7S,8S)-8-hydroxy-7-methyl-12-oxo-1-oxacyclododec-4-en-2-yl]propyl]-1H-1,2,3-triazol-4-yl}butyl)-4,6,10,12-tetramethyl-1λ^5,3-diaza-2λ^4-boratricyclo[7.3.0.0^3,7]dodeca-1(12),4,6,8,10-pentaen-1-ylium [Compound 29]",Metabolic activity (MA: mean absorbance) (A) % relative to control,[1]; 0.4 μM,0%
same,Metabolic activity (MA: mean absorbance) (A) % relative to control,[1]; 4 μM,30%
same,Metabolic activity (MA: mean absorbance) (A) % relative to control,[1]; 8 μM,40%
same,IC50,[1],16 µM
same,Metabolic activity (A): corresponding % of mycolactone activity (in brackets),[1],20%
same,Cytokine production (M.A.: mean absorbance) (C) % relative to control,[2]; 0.4 μM,18%
same,Cytokine production (M.A.: mean absorbance) (C) % relative to control,[2]; 4 μM,70%
same,Cytokine production (M.A.: mean absorbance) (C) % relative to control,[2]; 8 μM,95%
same,IC50,[2],3 µM
same,Cytokine production (C): corresponding % of mycolactone activity (in brackets),[2],3.3%
same,CD62-L expression (MFI: mean fluorescence intensity) (D) % relative to control,[3]; 4 μM,100%
same,CD62-L expression (MFI: mean fluorescence intensity) (D) % relative to control,[3]; 8 μM,100%
same,IC50,[3],2 µM
same,CD62-L expression (D): corresponding % of mycolactone activity (in brackets),[3],1.5%
"CC(=C/C=C/C(C)=C/[C@H](O)[C@@H](O)C[C@H](C)O)C=C(C)/C=C/C(=O)O[C@H]1CCCC(=O)O[C@@H]([C@@H](C)C/C(C)=C/[C@@H](C)[C@H](O)C[C@@H](C)O)C/C=C/C[C@@H]1C (racemic) [Compound 20a, (6S,7S,9E,12R)-12-[(2S,4E,6R,7R,9R)-7,9-dihydroxy-4,6-dimethyldec-4-en-2-yl]-7-methyl-2-oxo-1-oxacyclododec-9-en-6-yl(2E,4E,6E,8E,10E,12S,13S,15S)-12,13,15-trihydroxy-4,6,10-trimethylhexadeca-2,4,6,8,10-pentaenoate]",Metabolic activity (MA: mean absorbance) (A) % relative to control,[1]; 0.4 μM,0%
same,Metabolic activity (MA: mean absorbance) (A) % relative to control,[1]; 4 μM,10%
same,Metabolic activity (MA: mean absorbance) (A) % relative to control,[1]; 8 μM,30%
same,IC50,[1]; Homo sapiens,14 µM
same,"cytopathic activity, reduction compared to mycolactones A/B",[1],4 fold
same,Metabolic activity (A): corresponding % of mycolactone activity (in brackets),[1],25%
same,Cytokine production (M.A.: mean absorbance) (C) % relative to control,[2]; 0.4 μM,0%
same,Cytokine production (M.A.: mean absorbance) (C) % relative to control,[2]; 4 μM,40%
same,Cytokine production (M.A.: mean absorbance) (C) % relative to control,[2]; 8 μM,70%
same,IC50,[2]; Homo sapiens,6 µM
same,Cytokine production (C): corresponding % of mycolactone activity (in brackets),[2],1.6%
same,cytotoxicity compared to mycolactones A/B,[4],equivalent cytotoxicity
"CC(=C/C=C/C(C)=C/[C@H](O)[C@@H](O)C[C@@H](C)O)C=C(C)/C=C/C(=O)O[C@H]1CCCC(=O)O[C@@H]([C@@H](C)C/C(C)=C/[C@@H](C)[C@H](O)C[C@@H](C)O)C/C=C/C[C@@H]1C (racemic) [Compound 20b, (6S,7S,9E,12R)-12-[(2S,4E,6R,7R,9R)-7,9-dihydroxy-4,6-dimethyldec-4-en-2-yl]-7-methyl-2-oxo-1-oxacyclododec-9-en-6-yl(2E,4E,6E,8E,10E,12S,13S,15R)-12,13,15-trihydroxy-4,6,10-trimethylhexadeca-2,4,6,8,10-pentaenoate]",Metabolic activity (MA: mean absorbance) (A) % relative to control,[1]; 0.4 μM,0%
same,Metabolic activity (MA: mean absorbance) (A) % relative to control,[1]; 4 μM,10%
same,Metabolic activity (MA: mean absorbance) (A) % relative to control,[1]; 8 μM,15%
same,IC50,[1]; Homo sapiens,15 µM
same,"cytopathic activity, reduction compared to mycolactones A/B",[1],4 fold
same,Metabolic activity (A): corresponding % of mycolactone activity (in brackets),[1],23%
same,Cytokine production (M.A.: mean absorbance) (C) % relative to control,[2]; 0.4 μM,20%
same,Cytokine production (M.A.: mean absorbance) (C) % relative to control,[2]; 4 μM,55%
same,Cytokine production (M.A.: mean absorbance) (C) % relative to control,[2]; 8 μM,92%
same,IC50,[2]; Homo sapiens,4 µM
same,Cytokine production (C): corresponding % of mycolactone activity (in brackets),[2],2.5%
same,CD62-L expression (MFI: mean fluorescence intensity) (D) % relative to control,[3]; 4 μM,0%
same,CD62-L expression (MFI: mean fluorescence intensity) (D) % relative to control,[3]; 8 μM,50%
same,IC50,[3]; T-cell,8 µM
same,CD62-L expression (D): corresponding % of mycolactone activity (in brackets),[3],0.4%
same,cytotoxicity compared to mycolactones A/B,[4],equivalent cytotoxicity
"CC(=C/C=C/C(C)=C/[C@@H](O)[C@H](O)C[C@@H](C)O)C=C(C)/C=C/C(=O)O[C@H]1CCCC(=O)O[C@@H]([C@@H](C)C/C(C)=C/[C@@H](C)[C@H](O)C[C@@H](C)O)C/C=C/C[C@@H]1C (racemic) [Compound 20c, (6S,7S,9E,12R)-12-[(2 S,4E,6R,7R,9R)-7,9-dihydroxy-4,6-dimethyldec-4-en-2-yl]-7-methyl-2-oxo-1-oxacyclododec-9-en-6-yl(2E,4E,6E,8E,10E,12R,13R,15R)-12,13,15-trihydroxy-4,6,10-trimethylhexadeca-2,4,6,8,10-pentaenoate]",cytopathic activity compared to compound 20a,[1],significantly reduced
same,Metabolic activity (MA: mean absorbance) (A) % relative to control,[1]; 0.4 μM,0%
same,Metabolic activity (MA: mean absorbance) (A) % relative to control,[1]; 4 μM,20%
same,Metabolic activity (MA: mean absorbance) (A) % relative to control,[1]; 8 μM,25%
same,IC50,[1]; Homo sapiens,> 16 µM
same,Metabolic activity (A): corresponding % of mycolactone activity (in brackets),[1],< 20%
same,Cytokine production (M.A.: mean absorbance) (C) % relative to control,[2]; 0.4 μM,18%
same,Cytokine production (M.A.: mean absorbance) (C) % relative to control,[2]; 4 μM,35%
same,Cytokine production (M.A.: mean absorbance) (C) % relative to control,[2]; 8 μM,65%
same,IC50,[2]; Homo sapiens,6.5 µM
same,Cytokine production (C): corresponding % of mycolactone activity (in brackets),[2],1.5%
same,CD62-L expression (MFI: mean fluorescence intensity) (D) % relative to control,[3]; 4 μM,0%
same,CD62-L expression (MFI: mean fluorescence intensity) (D) % relative to control,[3]; 8 μM,10%
same,IC50,[3]; T-cell,> 16 µM
same,CD62-L expression (D): corresponding % of mycolactone activity (in brackets),[3],< 0.2%
same,cytotoxic activity compared to compound 20a,[4],significantly reduced
"CC(=C/C=C/C(C)=C/C[C@@H](O)CC(C)O)C=C(C)/C=C/C(=O)O[C@H]1CCCC(=O)O[C@@H]([C@@H](C)C/C(C)=C/[C@@H](C)[C@H](O)C[C@@H](C)O)C/C=C/C[C@@H]1C (stereo in doubt) [Compound 20d, (6S,7S,9E,12R)-12-[(2S,4E,6R,7R,9R)-7,9-dihydroxy-4,6-dimethyldec-4-en-2-yl]-7-methyl-2-oxo-1-oxacyclododec-9-en-6-yl(2E,4E,6E,8E,10E,13R,15R)-13,15-dihydroxy-4,6,10-trimethylhexadeca-2,4,6,8,10-pentaenoate]",cytopathic activity compared to compound 20a,[1],significantly reduced
same,Metabolic activity (MA: mean absorbance) (A) % relative to control,[1]; 0.4 μM,0%
same,Metabolic activity (MA: mean absorbance) (A) % relative to control,[1]; 4 μM,20%
same,Metabolic activity (MA: mean absorbance) (A) % relative to control,[1]; 8 μM,25%
same,IC50,[1]; Homo sapiens,> 16 µM
same,Metabolic activity (A): corresponding % of mycolactone activity (in brackets),[1],< 20%
same,Cytokine production (M.A.: mean absorbance) (C) % relative to control,[2]; 0.4 μM,12%
same,Cytokine production (M.A.: mean absorbance) (C) % relative to control,[2]; 4 μM,30%
same,Cytokine production (M.A.: mean absorbance) (C) % relative to control,[2]; 8 μM,55%
same,IC50,[2]; Homo sapiens,7.3 µM
same,Cytokine production (C): corresponding % of mycolactone activity (in brackets),[2],1.4%
same,CD62-L expression (MFI: mean fluorescence intensity) (D) % relative to control,[3]; 4 μM,0%
same,CD62-L expression (MFI: mean fluorescence intensity) (D) % relative to control,[3]; 8 μM,0%
same,cytotoxic activity compared to compound 20a,[4],significantly reduced
